{
  "source": "patent EP0983763A1",
  "about": "“PREVENTIVES FOR RECONSTRICTION” (TAISHO PHARMACEUTICAL CO. LTD, priority 1997, dated 1998)",
  "key": {"[1]": {"tested_on": "smooth muscle cells", "assay": "Histopathological observation of the thickened intima after injury of the blood vessel", "assay_type": "in vivo", "conditions": "histopathologically observed; model and dose not stated"}, "[2]": {"tested_on": "intimal thickening", "assay": "Inhibiting activity on intimal thickening in a model for vascular endothelial injury in WHHL rabbits (balloon catheter injury of right common carotid artery)", "assay_type": "in vivo, WHHL strain male rabbits", "conditions": "for Level of intimal thickening I/M: 4 weeks after endothelium injury, Means ± S.E., control 1.00±0.23", "excerpt": "(§1) As test animals were used a group of 4 homozygous hereditary hyperlipemic WHHL strain male rabbits of 2 months (available from Kitayama RABES K.K.) A balloon catheter for removing arterial embolus (Fogarty catheter, E-060-2F, available from Baxter Co., Inc.) was inserted into the right common carotid artery via the right external carotid artery of the rabbits under anesthesia with pentobarbital. The right common carotid artery was abraded three times with the balloon swollen (a balloon pressure of 0.5-1.0 atm) to produce a model for the injured vascular endothelium. The drug was administered for 4 weeks after the endothelium injury, and then the artery was excised and fixed with 10% neutral buffered formalin to prepare a slice of the arterial ring tissue. Elastic fiber-stained tissue preparations were prepared by Elastic Van Gieson (EVG) staining. Areas of the intima (I) and of the medium (M) were measured by means of an image analysis system (Adobe Photoshop, Unitimage for the Apple Macintosh) and a ratio of both values (I/M) was calculated to determine a level of intimal thickening. A total blood cholesterol level was measured according to an enzyme method (Autosera CHO-2, Daiichi Kagaku Yakuhin K.K.) using an autoanalyzer (Hitachi 7150 type).\n(§2) The drug was given in admixture with a rabbit feed RC-4 (available from Oriental Kobo K.K.) at the concentrations of 0.0003% and of 0.003%, and then a dose was calculated from the amount of feed ingested and the body weight."}, "[3]": {"assay": "Total blood cholesterol level by enzyme method in the WHHL rabbit endothelial injury model", "assay_type": "in vivo, WHHL strain male rabbits", "conditions": "WHHL rabbits, 4 weeks after endothelium injury, Means ± S.E., control 841±44", "excerpt": "as §1, §2"}, "[4]": {"tested_on": "intimal thickening", "assay": "Inhibiting activity on intimal thickening in a model for vascular endothelial injury in normal rabbits (balloon catheter injury of right common carotid artery)", "assay_type": "in vivo, NZW strain male rabbits", "conditions": "for Level of intimal thickening I/M: 1 week before and 2 weeks after endothelium injury, Means ± S.E., control 0.251±0.030", "description": "as §1, with “of 5 NZW” for “of 4 homozygous hereditary hyperlipemic WHHL”, “K.K.) After a drug was administered to rabbits for 1 week, a” for “K.K.) A”, “for 2” for “for 4”, “thickening.” for “thickening. A total blood cholesterol level was measured according to an enzyme method (Autosera CHO-2, Daiichi Kagaku Yakuhin K.K.) using an autoanalyzer (Hitachi 7150 type).”\nThe drug was given in admixture with a rabbit feed RC-4 (available from Oriental Kobo K.K.) at the concentration of 0.0003% and a dose was calculated from the amount of feed ingested and the body weight."}},
  "data": [
    {"smiles": "CCCCCCCCCCCCCCSCC(=O)Nc1c(C(C)C)cccc1C(C)C", "note": "[Compound of the invention]", "values": [
      {"measurement": "number of smooth muscle cells during the proliferation period in the thickened intima", "setting": "[1]", "value": "decrease the number of smooth muscle cells"},
      {"measurement": "Level of intimal thickening I/M", "setting": "[2]; 0.2 mg/kg (0.0003% in feed)", "value": "0.45±0.19"},
      {"measurement": "Level of intimal thickening I/M", "setting": "[2]; 2.0 mg/kg (0.003% in feed)", "value": "0.38±0.05"},
      {"measurement": "inhibition at 0.2 mg/kg", "setting": "[2]; Oryctolagus cuniculus, 0.2 mg/kg, from I/M ratio vs control group", "value": 55, "unit": "%"},
      {"measurement": "inhibition at 2 mg/kg", "setting": "[2]; Oryctolagus cuniculus, 2.0 mg/kg, from I/M ratio vs control group", "value": 62, "unit": "%"},
      {"measurement": "Total blood cholesterol", "setting": "[3]; 0.2 mg/kg (0.0003% in feed)", "value": "861 ± 83", "unit": "mg/dL"},
      {"measurement": "Total blood cholesterol", "setting": "[3]; 2.0 mg/kg (0.003% in feed)", "value": "907 ± 48", "unit": "mg/dL"},
      {"measurement": "Level of intimal thickening I/M", "setting": "[4]; 0.2 mg/kg (0.0003% in feed)", "value": "0.126±0.028"},
      {"measurement": "inhibition at 0.2 mg/kg", "setting": "[4]; Oryctolagus cuniculus, feed or water, 0.2 mg/kg (0.0003% in feed), from I/M ratio vs control group", "value": 49.8, "unit": "%"}
    ]},
    {"smiles": "CC(C)(Sc1cc(C(C)(C)C)c(O)c(C(C)(C)C)c1)Sc1cc(C(C)(C)C)c(O)c(C(C)(C)C)c1", "note": "[Probucol, probucol, reference compound]", "values": [
      {"measurement": "Level of intimal thickening I/M", "setting": "[2]; 190 mg/kg (0.35% in feed)", "value": "0.43±0.08"},
      {"measurement": "inhibition at 190 mg/kg", "setting": "[2]; Oryctolagus cuniculus, 190 mg/kg, from I/M ratio vs control group", "value": 57, "unit": "%"},
      {"measurement": "Total blood cholesterol", "setting": "[3]; 190 mg/kg (0.35% in feed)", "value": "723 ± 44", "unit": "mg/dL"}
    ]},
    {"smiles": "COc1ccc(/C=C/C(=O)Nc2ccccc2C(=O)O)cc1OC", "note": "[Tranilast, tranilast, reference compound]", "values": [
      {"measurement": "Level of intimal thickening I/M", "setting": "[4]; 100 mg/kg (0.167% in feed)", "value": "0.184±0.051"},
      {"measurement": "inhibition at 100 mg/kg", "setting": "[4]; Oryctolagus cuniculus, feed or water, 100 mg/kg (0.167% in feed), from I/M ratio vs control group", "value": 26.6, "unit": "%"}
    ]}
  ]
}
